The values that follow come from patent publication US20120172361A1, “TRIAZINE DERIVATIVES AND THEIR THERAPEUTICAL APPLICATIONS” (CALIFORNIA CAPITAL EQUITY, LLC, priority 2009, published 2012).

Broadly, the inhibition is the drop in the measured response relative to a control, in per cent. Read a low inhibition as a response near the control.

This test has as its target T1, Aurora-A(h) (Homo sapiens, UniProt O14965).
T1 construct: purchased Millipore (KinaseProfiler service); also Reaction Biology Corp. (Kinase Hotspot)
T1 sequence (O14965 1-403): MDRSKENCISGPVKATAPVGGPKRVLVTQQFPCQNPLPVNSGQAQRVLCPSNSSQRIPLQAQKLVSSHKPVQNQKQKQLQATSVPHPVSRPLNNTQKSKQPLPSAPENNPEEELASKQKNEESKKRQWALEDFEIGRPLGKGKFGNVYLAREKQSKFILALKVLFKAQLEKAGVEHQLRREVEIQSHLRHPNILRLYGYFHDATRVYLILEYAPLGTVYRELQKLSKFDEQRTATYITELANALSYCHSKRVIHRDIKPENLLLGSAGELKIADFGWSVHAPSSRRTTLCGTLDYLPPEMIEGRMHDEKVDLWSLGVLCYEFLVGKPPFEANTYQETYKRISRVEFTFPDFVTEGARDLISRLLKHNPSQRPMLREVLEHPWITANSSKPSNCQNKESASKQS
Nature of the test: Aurora-A kinase assay (KinaseProfiler Service Assay Protocols, Millipore; also Kinase Hotspot, Reaction Biology Corp.). The test is classed as biochemical. Conditions: compound concentration 1 μM. The protocol: This example illustrated Aurora Kinase Assays of selected Compounds from this invention (referred to Daniele Fancelli et al, J. Med. Chem., 2006, 49 (24), pp 7247-7251). The KinaseProfiler™ Service Assay Protocols (Millipore) were used to test the kinase inhibiting activity of novel compounds from this invention. To do this, the buffer composition was as: 20 mM MOPS, 1 mM EDTA, 0.01% Brij-35, 5% Glycerol, 0.1% β-mercaptoethanol, 1 mg/mL BSA. Test compounds were initially dissolved in DMSO at the desired concentration, then serially diluted to the kinase assay buffer. In a final reaction volume of 25 μL, Aurora-A(h) (5-10 mU) is incubated with 8 mM MOPS pH 7.0, 0.2 mM EDTA, 200 μM LRRASLG (Kemptide), 10 mM MgAcetate and [γ33P-ATP]. The reaction was initiated by the addition of the MgATP mix. After incubation for 40 minute at room temperature, the reaction was stopped by addition of 5 μL of a 3% phosphoric acid solution. 10 μL of the reaction was then spotted onto a P30 filtermat and washed three times for 5 minutes in 50 mM phosphoric acid and once in methanol prior to drying and scintillation counting. Wells containing substrate but no kinase and wells containing a phosphopeptide control were used to set 0% and 100% phosphorylation value, respectively.
Also Kinase Hotspot SM kinase assay was used to test the compounds for IC50 or % inhibitions (Reaction Biology Corp.). Inhibitor IC50 values were determined by titration of compound at the optimal kinase concentration (Kinase EC50).
On to `CCCCNc1nc(Nc2cc(C)[nH]n2)nc(Sc2ccc(NC(=O)C3CC3)cc2)n1` [Example 93], for which the inhibition at 1 µM was > 90%.
Turning to `CCN(CC)c1nc(Nc2cc(C)[nH]n2)nc(Sc2ccc(NC(=O)C3CC3)cc2)n1` [Example 94], the inhibition at 1 µM is > 90%.
On to `Cc1cc(Nc2nc(Sc3ccc(NC(=O)C4CC4)cc3)nc(N3CCN(CCO)CC3)n2)n[nH]1` [Example 96], for which the inhibition at 1 µM is > 90%.
Consider `Cc1cc(Nc2nc(N)nc(Sc3ccc(NC(=O)C4CC4)cc3)n2)n[nH]1` [Example 97], for which the inhibition at 1 µM was > 90%.
Turning to `CCc1nc(Nc2cc(C)[nH]n2)nc(N2CCN(C)CC2)n1` [Example 103], the inhibition at 1 µM was < 50%.
For `Cc1cc(Nc2nc(Sc3ccc(C(=O)NC4CC4)cc3)nc(N3CCN(C)CC3)n2)n[nH]1` [Example 106] the value was > 50%; for `CCc1nc(Nc2cc(C)[nH]n2)nc(Sc2ccc(C(=O)NC3CC3)cc2)n1` [Example 107], < 50%; for `CCC(=O)Nc1ccc(Sc2nc(N3CCN(C)CC3)nc(-n3cc(C)sc3=N)n2)cc1` [Example 109], < 50%.
The value for `CCC(=O)Nc1ccc(Sc2nc(C3CC3)nc(-n3cc(C)sc3=N)n2)cc1` [Example 110] was > 50%; that for `Cc1cn(-c2nc(Sc3ccc(NC(=O)c4ccccc4)cc3)nc(N3CCN(C)CC3)n2)c(=N)s1` [Example 112] was > 50%; that for `Cc1cnc(Nc2nc(Sc3ccc(NC(=O)c4ccccc4)cc3)nc(N3CCN(C)CC3)n2)s1` [Example 113] was > 90%.
The value for `CCC(=O)Nc1ccc(Sc2nc(Nc3ncc(C)s3)nc(N3CCN(C)CC3)n2)cc1` [Example 114] was > 90%; that for `Cc1cc(Nc2nc(Sc3ccc(C(=O)NC(C)C)cc3)nc(N3CCN(C)CC3)n2)n[nH]1` [Example 115] was > 90%.
Regarding `Cc1cc(Nc2nc(Sc3ccc(C(=O)Nc4ccccc4)cc3)nc(N3CCN(C)CC3)n2)n[nH]1` [Example 116], the inhibition at 1 µM was > 90%.
In the case of `Cc1cc(Nc2nc(Sc3ccc(C(=O)NCc4ccc(F)cc4)cc3)nc(N3CCN(C)CC3)n2)n[nH]1` [Example 118], the inhibition at 1 µM is > 90%.
As to `Cc1cc(Nc2nc(Sc3ccc(NC(=O)C4CC4)cc3)nc(N3CCN(C)CC3)n2)no1` [Example 120], the inhibition at 1 µM was < 50%.
For the molecule `Cc1ccnc(Nc2nc(Sc3ccc(NC(=O)C4CC4)cc3)nc(N3CCN(C)CC3)n2)n1` [Example 121], the inhibition at 1 µM was < 50%.
For `Cc1ccc(Nc2nc(Sc3ccc(NC(=O)C4CC4)cc3)nc(N3CCN(C)CC3)n2)nc1` [Example 122] the value was > 50%; for `CN1CCN(c2nc(Nc3ccc(Br)cn3)nc(Sc3ccc(NC(=O)C4CC4)cc3)n2)CC1` [Example 123], > 50%; for `Cc1cc(Nc2nc(Sc3ccc(NC(=O)C4CC4)cc3)nc(N(C)C)n2)n[nH]1` [Example 127], > 90%.
